Starred links: 1 amine or outer side, 2 acyl side, 3 side chain; linkers in the order of their positions; H or OH if unused. Positions of bridges follow the written chain, without caps; N, C: chain ends. Non-standard residues stand in square brackets, D forms with d. Residues, ends and D or L forms follow the SMILES beside them. 1Nal = N[C@@H](Cc1cccc2ccccc12)C(=O)O; TBMB = c1c(C[*:1])cc(C[*:3])cc1C[*:2]; Tle = CC(C)(C)[C@H](N)C(=O)O; βAla = NCCC(=O)O; Sar = CNCC(=O)O
How the values were obtained:
hemopexin domain of MT1 = hemopexin domain of MT1 (Homo sapiens, UniProt P50281); assay: Bicycle peptide binding to hemopexin domain of MT1; details: read-out: apparent Kd
[1] = system: cell migration or invasion; assay: Effect on cell migration or invasion; format: cell-based
Pro-MMP1 = target: T1, Pro-MMP1 (Homo sapiens, UniProt P03956); assay: Binding to related MMP family members
T1 construct: (MMP15, MMP16, MMP24, MMP1, Pro-MMP1, MMP2)
T1 sequence (P03956 20-469 limits assumed): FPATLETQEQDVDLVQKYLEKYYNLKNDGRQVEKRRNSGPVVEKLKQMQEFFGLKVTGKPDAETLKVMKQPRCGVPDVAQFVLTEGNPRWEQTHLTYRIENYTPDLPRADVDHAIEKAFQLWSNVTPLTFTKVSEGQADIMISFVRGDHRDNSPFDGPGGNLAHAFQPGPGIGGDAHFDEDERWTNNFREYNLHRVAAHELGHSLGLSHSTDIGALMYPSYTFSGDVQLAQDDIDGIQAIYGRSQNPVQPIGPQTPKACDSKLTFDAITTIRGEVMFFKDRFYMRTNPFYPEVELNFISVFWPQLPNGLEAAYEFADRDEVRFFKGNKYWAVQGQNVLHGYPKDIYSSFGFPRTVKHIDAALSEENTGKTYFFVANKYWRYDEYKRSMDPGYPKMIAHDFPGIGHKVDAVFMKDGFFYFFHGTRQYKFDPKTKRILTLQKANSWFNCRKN

MMP15 = MMP15 (Homo sapiens, UniProt P51511); assay: Binding to related MMP family members
Sequence of MMP15 (P51511 132-669, species assumed): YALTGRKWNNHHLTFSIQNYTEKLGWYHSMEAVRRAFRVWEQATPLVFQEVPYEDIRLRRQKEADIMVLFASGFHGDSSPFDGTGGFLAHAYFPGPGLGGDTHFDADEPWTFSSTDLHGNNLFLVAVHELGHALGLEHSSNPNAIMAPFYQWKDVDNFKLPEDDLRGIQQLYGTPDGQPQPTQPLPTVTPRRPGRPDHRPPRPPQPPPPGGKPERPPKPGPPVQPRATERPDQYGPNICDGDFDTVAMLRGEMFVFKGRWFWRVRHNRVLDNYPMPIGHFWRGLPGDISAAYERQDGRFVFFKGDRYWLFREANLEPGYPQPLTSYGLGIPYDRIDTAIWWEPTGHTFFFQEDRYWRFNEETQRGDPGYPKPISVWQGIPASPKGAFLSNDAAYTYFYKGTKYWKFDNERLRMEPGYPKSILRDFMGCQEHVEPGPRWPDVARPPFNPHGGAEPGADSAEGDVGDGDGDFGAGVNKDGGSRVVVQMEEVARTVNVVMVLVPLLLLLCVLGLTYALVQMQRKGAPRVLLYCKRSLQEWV

MMP24 = MMP24 (Homo sapiens, UniProt Q9Y5R2); assay: Binding to related MMP family members
Sequence of MMP24 (Q9Y5R2 156-645, species assumed): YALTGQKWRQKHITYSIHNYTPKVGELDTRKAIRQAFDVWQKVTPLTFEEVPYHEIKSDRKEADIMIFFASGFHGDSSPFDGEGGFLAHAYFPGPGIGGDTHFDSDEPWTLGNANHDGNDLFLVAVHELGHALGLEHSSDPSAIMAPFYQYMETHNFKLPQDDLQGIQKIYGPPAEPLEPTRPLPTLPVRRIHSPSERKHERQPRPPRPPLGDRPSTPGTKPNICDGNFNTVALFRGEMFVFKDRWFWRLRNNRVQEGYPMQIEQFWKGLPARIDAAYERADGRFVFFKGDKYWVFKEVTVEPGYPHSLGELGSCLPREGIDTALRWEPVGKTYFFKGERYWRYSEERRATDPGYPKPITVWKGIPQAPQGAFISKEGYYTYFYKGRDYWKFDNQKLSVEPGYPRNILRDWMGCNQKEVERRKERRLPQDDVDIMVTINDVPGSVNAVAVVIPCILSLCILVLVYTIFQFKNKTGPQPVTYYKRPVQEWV

MMP9 = MMP9 (Homo sapiens, UniProt P14780); assay: Effect on related MMP catalytic activity; format: biochemical
Sequence of MMP9 (P14780 94-707, species assumed): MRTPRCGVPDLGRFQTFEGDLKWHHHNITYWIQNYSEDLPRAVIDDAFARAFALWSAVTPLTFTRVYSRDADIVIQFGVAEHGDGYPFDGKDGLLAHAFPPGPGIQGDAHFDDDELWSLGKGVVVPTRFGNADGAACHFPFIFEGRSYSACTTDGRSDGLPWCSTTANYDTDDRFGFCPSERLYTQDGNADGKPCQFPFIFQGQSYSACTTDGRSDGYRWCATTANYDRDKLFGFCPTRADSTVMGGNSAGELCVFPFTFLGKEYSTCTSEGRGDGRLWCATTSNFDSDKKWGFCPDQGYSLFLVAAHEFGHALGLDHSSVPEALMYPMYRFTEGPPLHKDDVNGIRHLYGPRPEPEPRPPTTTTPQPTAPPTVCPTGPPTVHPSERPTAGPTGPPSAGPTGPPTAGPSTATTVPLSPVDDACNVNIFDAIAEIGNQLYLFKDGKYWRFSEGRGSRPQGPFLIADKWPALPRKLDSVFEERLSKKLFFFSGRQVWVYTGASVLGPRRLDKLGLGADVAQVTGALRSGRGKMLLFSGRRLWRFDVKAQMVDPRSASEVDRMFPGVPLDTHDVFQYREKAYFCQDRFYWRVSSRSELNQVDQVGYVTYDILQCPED

MT1 = MT1 (Homo sapiens, UniProt P50281); assay: Effect on catalytic activity of the protease in vitro; format: biochemical
MMP16 = MMP16 (Homo sapiens, UniProt P51512); assay: Binding to related MMP family members
Sequence of MMP16 (P51512 120-607, species assumed): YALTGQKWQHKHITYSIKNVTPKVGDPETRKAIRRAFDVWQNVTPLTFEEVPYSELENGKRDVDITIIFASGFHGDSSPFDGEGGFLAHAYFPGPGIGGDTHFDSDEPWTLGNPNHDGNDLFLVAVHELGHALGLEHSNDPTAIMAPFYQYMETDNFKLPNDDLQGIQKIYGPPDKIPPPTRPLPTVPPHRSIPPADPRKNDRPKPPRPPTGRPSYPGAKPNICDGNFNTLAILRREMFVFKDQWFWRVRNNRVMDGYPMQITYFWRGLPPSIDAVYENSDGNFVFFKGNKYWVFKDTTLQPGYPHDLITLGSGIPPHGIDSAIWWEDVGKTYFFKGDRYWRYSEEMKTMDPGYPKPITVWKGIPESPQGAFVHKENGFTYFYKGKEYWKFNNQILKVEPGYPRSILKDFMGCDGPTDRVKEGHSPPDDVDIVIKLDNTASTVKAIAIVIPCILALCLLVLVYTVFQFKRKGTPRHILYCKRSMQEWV

MMP1 [2] = target: T2, MMP1 (Homo sapiens, UniProt P03956); assay: Effect on related MMP catalytic activity; format: biochemical
T2 sequence (P03956 100-469, species assumed): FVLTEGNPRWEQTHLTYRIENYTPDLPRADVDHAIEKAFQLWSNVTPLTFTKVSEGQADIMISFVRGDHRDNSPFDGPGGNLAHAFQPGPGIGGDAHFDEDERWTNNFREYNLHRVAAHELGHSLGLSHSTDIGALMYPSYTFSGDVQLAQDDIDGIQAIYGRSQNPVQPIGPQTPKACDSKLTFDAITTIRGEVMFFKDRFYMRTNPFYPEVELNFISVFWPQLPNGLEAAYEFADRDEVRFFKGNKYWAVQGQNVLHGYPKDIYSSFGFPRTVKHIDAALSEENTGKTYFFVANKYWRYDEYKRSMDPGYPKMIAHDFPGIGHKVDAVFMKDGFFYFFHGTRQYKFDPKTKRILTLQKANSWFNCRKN

MMP1 [3] = target: T2, MMP1; assay: Binding to related MMP family members
MMP2 [4] = target: T3, MMP2 (Homo sapiens, UniProt P08253); assay: Effect on related MMP catalytic activity; format: biochemical
T3 sequence (P08253 110-660, species assumed): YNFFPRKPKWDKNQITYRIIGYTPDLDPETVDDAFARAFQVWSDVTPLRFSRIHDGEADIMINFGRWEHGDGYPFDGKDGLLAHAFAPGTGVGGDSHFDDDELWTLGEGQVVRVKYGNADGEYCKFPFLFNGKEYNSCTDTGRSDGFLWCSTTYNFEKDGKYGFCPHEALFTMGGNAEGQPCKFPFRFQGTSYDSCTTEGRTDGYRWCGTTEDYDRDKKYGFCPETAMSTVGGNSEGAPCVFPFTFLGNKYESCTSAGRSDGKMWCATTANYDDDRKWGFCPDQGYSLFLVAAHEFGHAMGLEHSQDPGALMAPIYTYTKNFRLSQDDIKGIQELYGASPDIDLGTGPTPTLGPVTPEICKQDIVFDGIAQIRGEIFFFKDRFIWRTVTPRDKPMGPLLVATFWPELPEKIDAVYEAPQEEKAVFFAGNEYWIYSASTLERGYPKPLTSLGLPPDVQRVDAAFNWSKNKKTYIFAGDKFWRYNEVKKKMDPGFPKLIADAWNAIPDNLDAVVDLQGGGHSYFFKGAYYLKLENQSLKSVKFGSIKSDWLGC

MMP2 [5] = target: T3, MMP2; assay: Binding to related MMP family members
catalytic domain of MT1 = assay: Bicycle peptide binding to catalytic domain
[6] = system: MT1-positive tumor xenografts; details: mouse, in vivo, iv
MT1-MMP = MT1-MMP (Homo sapiens, UniProt P50281); assay: MT1-MMP fluorescent polarization competition; format: binding; details: up to 20 μM

C[C@H](NC(=O)CN(C)C(=O)CN(C)C(=O)CN(C)C(=O)CN(C)C(=O)CN(C)C(=O)CN(C)C(=O)CN(C)C(=O)CN(C)C(=O)CN(C)C(=O)CN(C)C(=O)CCN)C(=O)N[C@H]1CSCc2cc3cc(c2)CSC[C@H](NC(=O)[C@@H](C)NC(=O)[C@H](Cc2cccc4ccccc24)NC(=O)[C@H](CCC(=O)O)NC(=O)[C@H](CC(N)=O)NC(=O)[C@@H](C)NC1=O)C(=O)N[C@@H](CCC(=O)O)C(=O)N[C@@H](CC(=O)O)C(=O)N[C@@H](Cc1ccccc1)C(=O)N[C@@H](Cc1ccc(O)cc1)C(=O)N[C@@H](CC(=O)O)C(=O)N[C@@H](C(C)(C)C)C(=O)N[C@H](C(N)=O)CSC3 [Compound N241] (H-[βAla][Sar][Sar][Sar][Sar][Sar][Sar][Sar][Sar][Sar][Sar]AC[dA]NE[1Nal][dA]CEDFYD[Tle]C-NH2; linker 13-19-26 via TBMB; N-terminus and C-terminus assumed)
Kd (hemopexin domain of MT1): ~2 nM
impact on cell migration or invasion (in words) [1]: no direct impact
binding (in words) (Pro-MMP1): no binding
binding (in words) (MMP15): no binding
binding (in words) (MMP24): no binding
impact on catalytic activity (in words) (MMP9): no direct impact
impact on catalytic activity (in words) (MT1): no direct impact
binding (in words) (MMP16): no binding
impact on catalytic activity (in words) (MMP1 [2]): no direct impact
binding (in words) (MMP1 [3]): no binding
impact on catalytic activity (in words) (MMP2 [4]): no direct impact
binding (in words) (MMP2 [5]): no binding
binding (in words) (catalytic domain of MT1): no binding

C[C@H](NC(=O)CN(C)C(=O)CN(C)C(=O)CN(C)C(=O)CN(C)C(=O)CN(C)C(=O)CN(C)C(=O)CN(C)C(=O)CN(C)C(=O)CN(C)C(=O)CN(C)C(=O)CCN)C(=O)N[C@H]1CSCc2cc3cc(c2)CSC[C@H](NC(=O)[C@@H](C)NC(=O)[C@H](Cc2cccc4ccccc24)NC(=O)[C@H](CCC(=O)O)NC(=O)[C@H](CC(N)=O)NC(=O)[C@@H](C)NC1=O)C(=O)N[C@@H](CCC(=O)O)C(=O)N[C@@H](CC(=O)O)C(=O)N[C@@H](Cc1ccccc1)C(=O)N[C@@H](Cc1ccc(O)cc1)C(=O)N[C@@H](CC(=O)O)C(=O)N[C@@H](C(C)(C)C)C(=O)N[C@H](C(N)=O)CSC3 [^177Lu-loaded N241, metal not drawn] (H-[βAla][Sar][Sar][Sar][Sar][Sar][Sar][Sar][Sar][Sar][Sar]AC[dA]NE[1Nal][dA]CEDFYD[Tle]C-NH2; linker 13-19-26 via TBMB; N-terminus and C-terminus assumed)
tumor localization (in words) [6]: rapid tumor localization

(B-Ala)-Sar10-ACVPCADFPIWYC (SEQ ID NO: 17) (AXXXXXXXXXXACVPCADFPIWYC; not fully specified; N-methyl; non-natural residues) [non-binding peptide]
inhibition in MT1-MMP fluorescent polarization competition (MT1-MMP): no inhibition
